Assays:
[1] = tested on: clostripain; experiment: Clostripain protease activity, hydrolysis of BAEE synthetic substrate (absorbance 253 nm); assay type: biochemical; details: for Clostripain % Inhibited: room temperature
Description: (§1) The invention will be better understood by reference to the following nonlimiting examples which illustrate the use of the animal-derived polysaccharide materials of the present invention in inhibiting various enzymes. In these examples the activities of chymopapain and papain were determined by assay using BAPNA, N-benzoyl-L-arginine-p-nitroanilide synthetic substrate by measuring the increase in absorbance at 415 nm. The activity of clostripain was determined by assay using BAEE, N-benzoyl-L-arginine ethyl ester synthetic substrate by measuring the increase in absorbance at […]. The activity of trypsin was determined by assay using BAPNA.
(§2) Protease activity was determined by measuring the reaction rates for the hydrolysis of synthetic substrates for the enzymes trypsin, chymopapain, papain, and clostripain. The increase in absorbance at 415 nm was used for the measurement of the reaction rates for trypsin, chymopapain and papain upon a BAPNA substrate. The increase in absorbance at 253 nm was used for the measurement of the reaction rates for clostripain. Trypsin, chymopapain and papain activities were determined at 37° C. in Tricine buffer, 50 mM, containing 10 mM CaCl2. Clodytipain activity was determined at room temperature. Chymopapain, papain, and clostripain were activated with L-cysteine or dithiothreitol reducing agent prior to assay. Concentration of reducing agent in the substrate solution was maintained at 5 mM by addition of reducing agent to the substrate solution.
(§3) Glycogen was dissolved in the assay buffer to a final concentration of 1%. The percentage inhibition was obtained from the ratio of enzyme activity in the presence of inhibitor to the activity of a control to which no inhibitor was added.

[2] = tested on: chymopapain; experiment: Chymopapain protease activity, hydrolysis of BAPNA synthetic substrate (absorbance 415 nm); assay type: biochemical, papaya; details: for Chymopapain % Inhibited: 37° C., Tricine buffer 50 mM, 10 mM CaCl2
Description: as §1, §2, §3

[3] = tested on: trypsin; experiment: Trypsin protease activity, hydrolysis of BAPNA synthetic substrate (absorbance 415 nm); assay type: biochemical; details: for Trypsin % Inhibited: 37° C., Tricine buffer 50 mM, 10 mM CaCl2
Description: as §1, §2, §3

[4] = tested on: papain; experiment: Papain protease activity, hydrolysis of BAPNA synthetic substrate (absorbance 415 nm); assay type: biochemical, papaya; details: 37° C., Tricine buffer 50 mM, 10 mM CaCl2
Description: as §1, §2
The percentage inhibition was obtained from the ratio of enzyme activity in the presence of inhibitor to the activity of a control to which no inhibitor was added.

[5] = inhibitor concentration 0.5%, listed as hyaluronic acid
[6] = inhibitor concentration 1%, listed as glycogen

Substance | Clostripain % Inhibited ([1]; inhibitor concentration 0.5%) [%] | Clostripain % Inhibited [1, 5] | Chymopapain % Inhibited ([2]; inhibitor concentration 0.5%) [%] | Chymopapain % Inhibited [2, 5] | Trypsin % Inhibited ([3]; inhibitor concentration 0.5%) [%] | Trypsin % Inhibited [3, 5] | Papain % Inhibited ([4]; inhibitor concentration 0.5%) [%] | Papain % Inhibited [4, 5] | effectiveness in inhibiting clostripain relative to chymopapain and papain ([1]; inhibitor concentration 0.5%) | effectiveness in inhibiting trypsin relative to chymopapain and papain ([3]; inhibitor concentration 0.5%) | Clostripain % Inhibited ([1]; inhibitor concentration 1%) [%] | Clostripain % Inhibited [1, 6] | effectiveness as inhibitor of chymopapain and papain activity relative to trypsin activity ([2]; inhibitor concentration 1%) | Chymopapain % Inhibited ([2]; inhibitor concentration 1%) [%] | Trypsin % Inhibited ([3]; inhibitor concentration 1%) [%] | Trypsin % Inhibited [3, 6] | Papain % Inhibited ([4]; inhibitor concentration 1%) [%]
Hyaluronic acid | 0 | no inhibiting effect | 34.2 | effective | 0 | no inhibiting effect | 35.8 | effective | – | – | – | – | – | – | – | – | –
Desulfated heparin | 0.8 | – | 8.8 | – | 4.1 | – | 9.8 | – | about one-tenth as effective | less than one-half as effective | – | – | – | – | – | – | –
Glycogen | – | – | – | – | – | – | – | – | – | – | 0 | no inhibiting effect | 10-20 times | 17 | 1.1 | about 1% | 12.5
